The results in this text go back to patent US20040171680A1, “Treating Syndrome X with substituted tetralins and indanes” (priority 2002, published 2004).

The term EC50 denotes the concentration at which the effect is half-maximal.

For one experiment, the target named is T1, PPARα (Rattus norvegicus, UniProt P37230).
T1 construct: H4IIE rat hepatoma cell line was obtained from ATCC; host or cells: H4IIE rat hepatoma cells
T1 sequence (P37230 1-468): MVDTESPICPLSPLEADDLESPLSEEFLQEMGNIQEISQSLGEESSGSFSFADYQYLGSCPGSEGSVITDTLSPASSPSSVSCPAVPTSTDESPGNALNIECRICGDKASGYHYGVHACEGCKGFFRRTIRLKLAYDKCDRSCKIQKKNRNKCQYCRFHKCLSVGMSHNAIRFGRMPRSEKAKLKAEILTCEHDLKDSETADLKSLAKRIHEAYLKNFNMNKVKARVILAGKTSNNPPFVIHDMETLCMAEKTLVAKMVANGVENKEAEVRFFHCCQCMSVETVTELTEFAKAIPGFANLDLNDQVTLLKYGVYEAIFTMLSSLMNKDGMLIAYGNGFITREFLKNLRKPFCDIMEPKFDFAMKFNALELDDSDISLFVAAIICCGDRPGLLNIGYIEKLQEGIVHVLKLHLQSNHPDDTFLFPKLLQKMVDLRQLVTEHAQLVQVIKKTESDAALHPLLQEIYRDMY
Kind of experiment: HD bDNA Assay (HD gene induction). As to conditions: in section F; target not named there, values match the PPARα column; read-out: EC50. It is filed as cell-based. As to the method: HD bDNA Assay H4IIE rat hepatoma cell line was obtained from ATCC. Cells were cultured in 175 cm^2 tissue culture flask or seeded in 96-well plate with (high serum content, 10% fetal bovine serum and 10% calf serum) culture medium and maintained at 37° C. and 5% CO2 throughout study. Twenty-four hours after the initial seeding of the 96-well plate by hand (approximate 100,000/well), the HD gene induction assay was initiated. Media was removed and replaced with 100 ul of low serum culture media (5% charcoal/dextran treated calf serum) containing vehicle (DMSO) or test compounds or standard. Cells returned to incubator for 24 hours culture. At the termination of the challenge, 50 ul lysis buffer with HD gene specific CE, LE, BL probes was added directly into each well to initiate the bDNA HD mRNA assay. The branched DNA assay was performed according to the manufacturer's protocol (Bayer Diagnostics; Emeryville. Calif.). At the end of the assay, the luminescence was quantitated in Dynex MLX microtiter plate luminometer. EC50's were determined by non-linear regression with a sigmoidal fit utilizing Graphpad Prism.

The next experiment has as its target T2, PPARγ (Homo sapiens, UniProt P37231).
T2 construct: Following the challenge of the preadipocytes, cells may be lysed with lysis buffer; endogenous in cells; host or cells: preadipocytes
T2 sequence (P37231 1-505): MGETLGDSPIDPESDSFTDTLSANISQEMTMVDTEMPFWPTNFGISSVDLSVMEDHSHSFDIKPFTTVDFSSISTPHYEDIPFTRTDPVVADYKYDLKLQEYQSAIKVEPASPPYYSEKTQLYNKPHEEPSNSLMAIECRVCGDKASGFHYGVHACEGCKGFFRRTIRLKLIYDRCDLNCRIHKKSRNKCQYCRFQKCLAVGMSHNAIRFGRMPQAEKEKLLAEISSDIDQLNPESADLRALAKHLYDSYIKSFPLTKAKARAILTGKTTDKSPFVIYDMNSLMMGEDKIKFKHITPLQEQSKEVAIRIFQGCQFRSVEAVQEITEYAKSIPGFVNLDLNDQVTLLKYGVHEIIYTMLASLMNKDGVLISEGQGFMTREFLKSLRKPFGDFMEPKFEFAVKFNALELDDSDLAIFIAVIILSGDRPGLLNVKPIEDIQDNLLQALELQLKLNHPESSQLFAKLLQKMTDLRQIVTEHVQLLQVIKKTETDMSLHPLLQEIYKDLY
The experiment can be described thus: aP2 Assay for PPAR gamma Agonists (bDNA aP2 mRNA in preadipocytes). The conditions noted are these: for PPARγ FI: fold induction, PPARγ standard: FI = 70.3; for EC50: values in square brackets. It is filed as cell-based. The text has this: aP2 Assay for PPAR gamma Agonists
The procedure is described in detail in Burris et al., Molecular Endocrinology, 1999, 13:410, which is hereby incorporated by reference in its entirety, and aP2 assay results of agonist intrinsic activity may be presented as fold increase over vehicle in induction of aP2 mRNA production.
Twenty-four hours after the initial seeding of the 96-well plates by hand (around 20,000/well), the differentiation assay may be initiated. Medium may be removed and replaced with […] of differentiation medium containing vehicle (DMSO) or test compounds. Cells may be returned to incubator for 24 hours culture. At the termination of the challenge, medium may be removed and 100 ul of lysis buffer may be added to initiate the bDNA aP2 mRNA assay. The branched DNA assay may be performed according to the manufacturer's protocol (Bayer Diagnostics; Emeryville, Calif.). Result may be expressed as the fold increase of aP2 mRNA production activated over vehicle controls. EC50's and Emax may be determined by non-linear regression with a sigmoidal fit curve.
Following the challenge of the preadipocytes, cells may be lysed with lysis buffer (Bayer Diagnostics) containing the aP2 oligonucleotides. After a 15 minute incubation at 53° C. or 30 minutes at 37° C. incubator, 70 ul of the lysis buffer from each well may be added to a corresponding capture well (preincubated with 70 ul of blocking buffer (Bayer Diagnostics)). The capture plate may be incubated overnight at 53° C. in a plate incubator (Bayer Diagnostics). After this incubation, the bDNA and labeled probes may be annealed as directed by the manufacturer. Following a 30-minute incubation with the luminescent alkaline phosphatase substrate, dioxitane, the luminescence may be quantitated in a Dynex MLX microtiter plate luminometer. Oligonucleotide probes designed to anneal to the aP2 mRNA and function in the bDNA mRNA detection system are designed with ProbeDesigner software (Bayer Diagnostics). This software package analyzes a target sequence of interest with a series of algorithms in order to determine which regions of the sequence can perform as locations for capture, label, or spacer probe annealing. The sequences of the oligonucleotides are as follows: […]

Another experiment deals with db/db mice. The experiment can be described thus: Oral dosing in female db/db mice. It is filed as in vivo. The conditions noted are these: Mus musculus, 120 h, 1.0 mpk, 5 day oral dosing, % change compared to vehicle. The procedure:
The compound was prepared as suspensions in 0.5% hydroxypropylmethylcellulose (Dow Chemical, Midland, Mich.). The dosing volume was 10 mL/kg of body weight. […] Body weight was measured in the mornings on Day 1, prior to dosing, and on Day 12 before bleeding. 18-24 hours after the final dose for each group, the mice were anesthetized with CO2/O2 (70:30) and bled by retro-orbital sinus puncture into micro-tubes containing clog activator and then put in ice. The serum samples were prepared by centrifugation. Serum glucose and triglycerides were determined by using COBAS Mira Plus blood chemistry analyzer (Roche Diagnostics, N.J.). Serum insulin was measured by using ALPCO insulin ELISA kit.
Statistical analysis was performed using the program Prism (Graphpad, Monrovia, Calif.) and performing one-way ANOVA with a Dunnet's multiple comparison test.

A further experiment has as its target T3, PPARδ (Homo sapiens, UniProt Q03181).
T3 construct: a Gal4-Luciferase reporter is co-transfected
T3 sequence (Q03181 171-441 limits assumed): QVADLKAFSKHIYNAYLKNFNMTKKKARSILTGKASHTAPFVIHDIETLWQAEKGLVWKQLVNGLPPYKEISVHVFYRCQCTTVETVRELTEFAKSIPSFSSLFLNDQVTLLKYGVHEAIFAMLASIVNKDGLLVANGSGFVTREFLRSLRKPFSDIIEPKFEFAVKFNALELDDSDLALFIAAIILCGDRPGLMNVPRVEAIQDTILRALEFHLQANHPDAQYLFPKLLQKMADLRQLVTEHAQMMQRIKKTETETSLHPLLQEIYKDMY
Kind of experiment: Transfection Assay for PPARδ Receptors (PPAR-Gal4 / Gal4-Luciferase reporter in HEK293 cells). It is filed as cell-based. The conditions noted are these: for EC50: values in square brackets. As to the method: Transfection Assay for PPARδ Receptors
HEK293 cells were grown in DMEM/F-12 Media supplemented with 10% FBS and glutamine (GIBCOBRL). The cells were co-transfected with DNA for PPAR-Gal4 receptor and Gal4-Luciferase Reporter using the DMRIE-C Reagent. On the following day, the DNA-containing medium were replaced with 5% Charcoal treated FBS growth medium. After six hours, cells were seeded in 96 well plate and incubated at 37° C. in CO2 incubator overnight. Cells were challenged by test compounds and incubated for 24 hours at 37° C. in 5% CO2 incubator. Luciferase activity was assayed using the Steady-Glo Luciferase Assay Kit from Promega. DMRIE-C Reagent was purchased from GIBCO Cat. No.10459-014. OPTI-MEM I Reduced Serum Medium was purchased from GIBCO Cat. No. 31985. Steady-Glo Luciferase Assay Kit was obtained from Promega Part# E254B.
(In a reporter assay the amount or activity of a reporter protein is the signal.)

Where two headings read alike, the source gives them in different places.

For the molecule `CCN(C(=O)Nc1ccc(SC(F)(F)F)cc1)C1Cc2ccc(SC(C)(C)C(=O)O)cc2C1` (centres unmarked) [Example 4, 2-{2-[1-Ethyl-3-(4-trifluoromethylsulfanylphenyl)ureido]indan-5-ylsulfanyl}-2-methylpropionic acid], the half-maximal effective concentration (EC50) at PPARα was found to be 37 nM. Further, the “PPARγ FI” value at PPARγ is 3.7. The change in vivo at 1 mg/kg is -11% with db/db mice (read-out: Δ BW), -49% with db/db mice (read-out: Δ Plasma Glucose), -13% with db/db mice (read-out: Δ Plasma Insulin) and -47% with db/db mice (read-out: Δ Plasma TG).
For the molecule `CCCCCN(C(=O)Nc1ccc(-c2ccccc2)cc1)C1Cc2ccc(SC(C)(C)C(=O)O)cc2C1` (centres unmarked) [Example 12], the EC50 on PPARα was found to be 183 nM. Also, on PPARγ, the “PPARγ FI” value was 11.
The matching figures for `CCCCCCN(C(=O)Nc1ccc(C(C)C)cc1)C1Cc2ccc(SC(C)(C)C(=O)O)cc2C1` (centres unmarked) [Example 13]: 184 nM and 1.2.
As to `CCCCCCN(C(=O)Nc1ccc(OC(F)(F)F)cc1)C1Cc2ccc(SC(C)(C)C(=O)O)cc2C1` (centres unmarked) [Example 14, 2-Methyl-2-{2-[1-hexyl-3-(4-trifluoromethoxyphenyl)ureido]indan-5-ylsulfanyl}propionic acid], on PPARα, the EC50 stood at 213 nM. In addition, on PPARδ (fold induction, PPARδ standard: FI = 36.1), the “PPARδ FI” value was found to be 1.3. For the same molecule, the “PPARγ FI” value on PPARγ came to 0.3.
Consider `CCCN(C(=O)Nc1ccc(OC(F)(F)F)cc1)C1Cc2ccc(SC(C)(C)C(=O)O)cc2C1` (centres unmarked) [Example 16, 2-Methyl-2-{2-[1-propyl-3-(4-trifluoromethoxyphenyl)ureido]indan-5-ylsulfanyl}propionic acid], for which the EC50 on PPARα is 158 nM. In addition, the “PPARγ FI” value on PPARγ amounted to 0.37.
The matching figures for `CCCCN(C(=O)Nc1ccc(SC(F)(F)F)cc1)C1Cc2ccc(SC(C)(C)C(=O)O)cc2C1` (centres unmarked) [Example 17, 2-Methyl-2-{2-[1-butyl-3-(4-trifluoromethylsulfanylphenyl)ureido]indan-5-ylsulfanyl}propionic acid]: 160 nM and 0.43.
For `CC(C)(Sc1ccc2c(c1)CC(NC(=O)Nc1ccc(OC(F)(F)F)cc1)C2)C(=O)O` (centres unmarked) [Example 18, 2-Methyl-2-{2-[3-(4-trifluoromethoxyphenyl)ureido]indan-5-ylsulfanyl}propionic acid], in that order: 135 nM and 0.31.
As for `CC(C)CCN(C(=O)Nc1ccc(OC(F)(F)F)cc1)C1Cc2ccc(SC(C)(C)C(=O)O)cc2C1` (centres unmarked) [Example 20, 2-Methyl-2-{2-[1-(3-methylbutyl)-3-(4-trifluoromethoxyphenyl)ureido]indan-5-ylsulfanyl}-2-methylpropionic acid], the EC50 at PPARα turned out to be 106 nM. In addition, the “PPARγ FI” value at PPARγ turned out to be 0.44.
For `CC(C)CCN(C(=O)Nc1ccc(C(C)C)cc1)C1Cc2ccc(SC(C)(C)C(=O)O)cc2C1` (centres unmarked) [Example 21, 2-{2-[3-(4-Isopropylphenyl)-1-(3-methylbutyl)ureido]indan-5-ylsulfanyl}-2-methylpropionic acid], in that order: 106 nM and 0.05.
As to `CCN(C(=O)Oc1ccc(C)cc1)C1CCc2cc(SC(C)(C)C(=O)O)c(Cl)cc2C1` (centres unmarked) [Example 58, 2-{3-Chloro-6-[(4-methyl-phenoxycarbonyl)-ethyl-amino]-5,6,7,8-tetrahydronaphthalen-2-ylsulfanyl}-2-methyl-propionic acid], the EC50 on PPARα is 340 nM; on PPARδ it was 613 nM; at PPARγ, over 3000 nM.
The matching figures for `CCN(C(=O)Oc1ccc(Cl)cc1)C1CCc2cc(SC(C)(C)C(=O)O)c(Cl)cc2C1` (centres unmarked) [Example 59, 2-{3-Chloro-6-[(4-chloro-phenoxycarbonyl)-ethyl-amino]-5,6,7,8-tetrahydronaphthalen-2-ylsulfanyl}-2-methyl-propionic acid]: 390 nM, 655 nM and 1110 nM.
The matching figures for `CCN(C(=O)Oc1ccc(OC(F)(F)F)cc1)C1CCc2cc(SC(C)(C)C(=O)O)ccc2C1` (centres unmarked) [Example 60, 2-{6-[Ethyl-(4-trifluoromethoxy-phenoxycarbonyl)-amino]-5,6,7,8-tetrahydronaphthalen-2-ylsulfanyl}-2-methyl-propionic acid]: 2 nM, over 3000 nM and over 3000 nM.
